Results published in patent US20210317111A1, “NOVEL MEDICAMENT FOR TREATING INFLAMMATORY BOWEL DISEASE” (OTSUKA PHARMACEUTICAL CO., LTD., priority 2018, published 2021).
pIC50: −log10 of the molar value. In brackets after ≈: the same amount, converted by molar mass.

Key:
[1] = tested on: TNF-α production; assay: inhibition of LPS-induced TNF-α production in human peripheral blood (ELISA); type: cell-based; conditions: 24 hours
Description: The LPS solution which was adjusted to 2 μg/mL with RPMI 1640 medium was added to 48-well plate in the amount of 250 μL/well. The each diluted solution of each test compound and the diluted solution of the solvent control were added to 3 wells for each concentration in the amount of 50 μL/well, 4-fold diluted solution of human peripheral blood was added to each well (200 μL/well), and the wells were incubated at 37° C. in 5% CO2 for 24 hours. As LPS (−) control, RPMI 1640 medium without added LPS was prepared in the same manner. The final concentrations of each test sample were adjusted to 0, 1, 3, 10, 30, and 100 μM, and the final concentration of prednisolone was adjusted to 0.3 μM. 24 hours later from the incubation, each supernatant was collected and stored at −80° C. until the measurement of the TNF-α concentration.
The TNF-α concentration was measured by ELISA with Human TNF-alpha Quantikine ELISA Kit (R & D Systems). Each sample was unfrozen at room temperature, and diluted with Calibrator Diluent RD6-35 (1×) of the kit by 10-fold. The 10-fold diluted supernatant and the TNF-α standard solution were added on TNF-α microplate, and reacted according to the operating manual of the kit. After the coloring, the absorbance at wave length of 450 nm was measured with a microplate reader (Multiskan FC; Thermo Fisher […]), and the calibration curve was prepared with an analysis software (Skanit Software 3.1.0.4 RE for Multiskan FC (ja)) to read the TNF-α concentration of each sample. Calibration curve used a 4-parameter logistic curve.
The inhibition rates were presented as the mean±standard deviation using Microsoft Excel 2010. For each blood donor, the TNF-α production rate under each compound concentration was calculated with the TNF-α concentration in the supernatant of the solvent group as 100%.
The results are averages of the measurements obtained from the human peripheral blood of three volunteers.

[2] = tested on: TNBS-induced enteritis; assay: TNBS-induced enteritis model; type: in vivo, rat
Description: An enteritis animal model induced with 2,4,6-trinitrobenzenesulfonic acid (TNBS) is widely used as Crohn's disease model since the inflammatory finding is pathologically similar to that of human Crohn's disease. In addition, the enteritis model was used in the non-clinical study of mesalazine that is a medicament for treating Crohn's disease. Thus, this enteritis model was used as Crohn's disease model for evaluating the present compound.
Rats were made to be fasted for 24 or 48 hours, and the body weight were measured. The rats were laparotomized under isoflurane anesthesia, and 50% ethanol (0.25 mL) containing 60 mg/mL 2,4,6-trinitrobenzenesulfonic acid (TNBS) was injected into the large intestine from the cecum side toward the anal side to induce the injury. Each group composed of 12 rats was set, and vehicle, the present compound, or salazosulfapyridine (SASP) which is an already-existing drug for treating inflammatory bowel disease were administered for 7 days from the first day after the injection of TNBS. On the 8th day, each rat was laparotomized under anesthesia and killed by exsanguination. The large intestine was removed from the anus to the cecum, the large intestine was longitudinally incised, and the incised large intestine was washed with a cold saline. The lesion area of the large intestine was photographed with a digital camera. The area of the lesion area in the photograph of the large intestine was measured using image analyzing program.
Each compound was orally administered at a dose of 100 mg/kg twice a day from one day after inducing enteritis with TNBS. Each area of the lesion area on the 8th day was compared.

[3] = tested on: proliferated T cell; assay: T-cell proliferation (CFSE) in stimulated PBMC; type: cell-based, human; conditions: both CD4-positive and CD8-positive T-cell; 2 days
Description: Peripheral blood (30 mL) derived from a healthy adult was layered on a lymphocyte tube Leucosep™ containing Lymphoprep (15 mL), and the tube was centrifuged at room temperature at 2000 rpm for 20 minutes. After the centrifugation, the upper 5 mL of the plasma was removed from the peripheral blood mononuclear cell (PBMC) layer with an aspirator, and the left solution containing the PBMC layer was collected into a new 50 mL tube. To the collected solution was added an equal amount of Hanks' balanced salt solution (HBSS) to dilute the cell suspension. The diluted solution was centrifuged at 4° C. at 1800 rpm for 5 minutes. After the centrifugation, the supernatant was discarded, the rest was suspended in 10 mL of AIM-V. The suspension was centrifuged at 4° C. at 1500 rpm for 5 minutes, and the supernatant was discarded. The same washing process was repeated one more time. After the centrifugation, the supernatant was discarded, and the obtained cell was suspended in 5% FBS-containing AIM-V to be used in the following tests. […]

[4] = tested on: DSS-induced colitis; assay: DSS-induced colitis model, stool scores; type: in vivo, rat; conditions: for deaths: 8 animals per group
Excerpt: A colitis model induced by dextran sulfate sodium (DSS) is widely used as an experimental ulcerative colitis model having similarities of human ulcerative colitis regarding suppression of weight gain, colitis symptoms such as bloody stools and diarrhea, and injury formation in the large intestine. The effect of the present compound on the ulcerative colitis model was examined, and it was compared with salazosulfapyridine (SASP) clinically used as a therapeutic agent for ulcerative colitis.
Symptoms of colitis were induced by allowing rats to freely drink 3% dextran sulfate sodium (DSS) solution for 10 days. […] For the observation of stool symptoms, the degree of stool condition was scored as the score of stool firmness (Stool Consistency Score: 0, 1, 2, 3) and blood stool (Bloody Stool Score: 0, 1, 2, 3). The total of Stool Consistency Score and Bloody Stool Score was taken as the Total Stool Score. Each group was composed of 8 animals. Salazosulfapyridine (SASP), which is an already-existing drug for treating inflammatory bowel disease, the present compound or the vehicle were administrated for 10 days from the start date of 3% DSS freely drinking.

[5] = tested on: Fusobacterium spp.; assay: antibacterial activity (MIC), agar plate dilution method; type: cell-based; conditions: 17 strains of Fusobacterium spp.; anaerobic, 37° C.
Description: There are plural reports about the relationship between intestinal bacteria and inflammatory bowel disease, and it is thought that Fusobacterium spp., one of the intestinal bacteria is a pathogenic bacteria causing inflammatory bowel disease. […] The antibacterial activity (minimum inhibitory concentration (MIC)) was assayed by agar plate dilution method which is based on Clinical and laboratory standards institute (CLSI). The medium used herein was Brucella medium with sheep blood. […] The bacterial suspension was inoculated onto Brucella agar with sheep blood which contains the present compound or any one of the comparative drugs, and incubated at 37° C. under an anaerobic condition.

[6] = 11th day, present compound 1, 3, 10 mg/kg (P<0.01) or SASP 100 mg/kg (P<0.05) orally twice a day, Dunnett's test
[7] = present compound groups, orally twice a day

For `Cc1c(-c2cnc(N)c(C#N)c2)c(F)cc2c(=O)c(C(=O)O)cn(C3CC3)c12` [the present compound, 7-(6-amino-5-cyanopyridin-3-yl)-1-cyclopropyl-6-fluoro-1,4-dihydro-8-methyl-4-oxo-3-quinoline-carboxylic acid], the “inhibitory effect on TNF-α production at 100 μM” value ([1]; 100 μM, human peripheral blood) was “completely inhibited”, the “inhibitory activity for TNF-α production over concentration range” value ([1]; 1, 3, 10, 30, 100 μM, human peripheral blood) was “dose-dependent manner” and the pIC50 ([1]; human peripheral blood of three volunteers) was 5.20. The “area of the lesion area of the large intestine” value ([2]; 100 mg/kg orally twice a day for 7 days, 8th day, vs vehicle control, P<0.01 t-test) was “significantly inhibited the area of lesion”, the “number of death during the treatment” value ([2]; 100 mg/kg orally twice a day, 12 rats per group) was “decreased the number of death” and the “inhibition of T cell proliferation (MFI CFSE)” value [3] was “effect of cell growth inhibition”. The deaths ([4]; 1 mg/kg orally twice a day) was “One”, the deaths ([4]; 3 mg/kg orally twice a day) was “no death” and the “effect on blood stool score at 10 mg/kg” value ([4]; 10 mg/kg orally twice a day) was “remarkable deterioration suppression effect”. The deaths ([4]; 10 mg/kg orally twice a day) was “no death”, the “bloody stool score vs vehicle control” value ([4]; 11th day, present compound 1 mg/kg (P<0.05), 3, 10 mg/kg (P<0.01) or SASP 100 mg/kg orally twice a day, Dunnett's test) was “Significant differences” and the “stool firmness (Stool Consistency Score) vs vehicle control” value [4, 6] was “Significant differences”. The “total stool score vs vehicle control” value [4, 6] was “Significant differences”, the “day from which deterioration suppression effect on blood stool score was observed” value [4, 7] was “from the 6th day” and the “day from which deterioration suppression effect on stool firmness score was observed” value [4, 7] was “from the 9th day”. The MIC [5] was 0.25 to 1 µg/mL (≈ 0.661 to 2.64 µM).
